{
  "source": "paper PMC6701825",
  "about": "“Antiproliferative and Antimigratory Effects of a Novel YAP–TEAD Interaction Inhibitor Identified Using in Silico Molecular Docking” (Journal of Medicinal Chemistry, 2019)",
  "test_system": "HuVSMC",
  "assay": "Real-time IncuCyte scratch wound migration assay in HuVSMC",
  "assay_type": "cell-based, human",
  "conditions": "HuVSMC, 0.25, 0.5, 2, and 10 μM",
  "method": "Figure 9 Compound 3.1 inhibits TEAD target gene expression, cell proliferation, and cell migration in RaVSMCs. RaVSMCs stably transduced with TEAD-NLUC (A) or transiently transfected with CCN1-LUC or CTGF-LUC were treated with the indicated concentrations of compound 3.1 for 6 hr. Cell conditioned media (A) or cell lysates (B−C) were assayed for nanoluciferase or fire-fly luciferase activity, respectively. VSMC were treated with 60 μM compound 3.1 for 6 h (n = 3). Total RNA was analyzed for mRNA levels of TEAD-target genes (D) or constitutive housekeeping genes (E) by qRT-PCR. VSMC were treated with indicated concentrations of compound 3.1 for 16 hr (n = 4). Total cell lysates were analyzed for CCN1 protein expression by Western blotting (F). RaVSMCs (G) or HuVSMC (H) were treated with indicated concentrations of compound 3.1 for 18 h followed by labeling in 10 μM EdU for a further 6 h (n = 4). RaVSMCs (I) or HuVSMC (J) were treated with indicated concentrations of compound 3.1 and cell migration quantified using IncuCyte real time migration assay (n = 4).\nCell proliferation was measured using the Click-iT EdU 488 assay (Sigma-Aldrich). […] Fluorescent images of at least three fields of view per well were counted using ImageJ software. […] Relative wound confluence was calculated using the Cell Migration Image analysis module of the IncuCyte ZOOM software.",
  "data": [
    {"compound": "Cc1ccc2c(c1)c1c3n2CCNC3CCC1", "note": "(stereo not shown) [CPD3.1]", "values": [
      {"measurement": "cell migration (scratch wound)", "result": "inhibited in a dose-dependent manner"}
    ]}
  ]
}
